Assay results reported in patent publication EP0059554A2, “Beta-lactam antibiotics, a process for their preparation and their use in pharmaceutical compositions” (BEECHAM GROUP PLC, priority 1981, dated 1982).
Values after ≈ are worked out from the molar mass of the structure shown.

Experiments:
Assay in all cases: MIC in broth
Format in all cases: cell-based
[1] = system: Citrobacter freundii E8
[2] = system: Enterobacter cloacae N1 [T753]
[3] = system: Escherichia coli JT39 [E96]
[4] = system: Escherichia coli ESS
[5] = system: Klebsiella aerogenes A [T767]
[6] = system: Proteus mirabilis 977 [13]
[7] = system: Proteus morganii 1580; settings: Morganella morganii
[8] = system: Proteus rettgeri WM16; settings: Providencia rettgeri
[9] = system: Proteus vulgaris W091
[10] = system: Pseudomonas aeruginosa A [11]
[11] = system: Salmonella typhimurium CT10; settings: Salmonella enterica
[12] = system: Serratia marcescens US20
[13] = system: Shigella sonnei MB11967
[14] = system: Bacillus subtilis A
[15] = system: Staphylococcus aureus Oxford
[16] = system: Staphylococcus aureus Russell [MB9]
[17] = system: Staphylococcus aureus 1517
[18] = system: Streptococcus faecalia I
[19] = system: Streptococcus pneumoniae CN33
[20] = system: Streptococcus pyogenes CN10
[21] = system: Escherichia coli 0111 [E8]

| Compound | MIC [1] [µg/mL] | MIC [2] [µg/mL] | MIC [3] [µg/mL] | MIC [4] [µg/mL] | MIC [5] [µg/mL] | MIC [6] [µg/mL] | MIC [7] [µg/mL] | MIC [8] [µg/mL] | MIC [9] [µg/mL] | MIC [10] [µg/mL] | MIC [11] [µg/mL] | MIC [12] [µg/mL] | MIC [13] [µg/mL] | MIC [14] [µg/mL] | MIC [15] [µg/mL] | MIC [16] [µg/mL] | MIC [17] [µg/mL] | MIC [18] [µg/mL] | MIC [20] [µg/mL] | MIC [21] [µg/mL] | further results |
| --- | --- | --- | --- | --- | --- | --- | --- | --- | --- | --- | --- | --- | --- | --- | --- | --- | --- | --- | --- | --- | --- |
| CC(=O)NCCSC1=C(C(=O)O)N2C(=O)[C@H]([C@@H](C)n3cc(C(=O)O)nn3)[C@H]2C1 [Example 4, Disodium (SR,6S) - 3 - (2 - acetamidoethylthio) - 6 - [(R) - 1 - (4 - carboxytriazol - 1 - yl)ethyl] - 7 - oxo - 1 - azabicyclo [3.2.0.]hept - 2 - ene - 2 - carboxylate.] | 1.6 | 3.1 | 3.1 | 1.6 | 3.1 | 12.5 | 25 | 6.2 | 6.2 | 100 | 6.2 | 6.2 | 12.5 | 3.1 | 6.2 | 6.2 | > 100 | 100 | 1.6 |  | MIC [19]: 1.6 µg/mL |
| CC(=O)N/C=C/SC1=C(C(=O)O)N2C(=O)[C@H]([C@@H](C)n3cc(C(=O)O)nn3)[C@H]2C1 [Example 6, Disodium (5R,6S)-3-[(E)-2-acetamidoethenylthio]-6-[(R)-1-(4-carboxytriazol-1-yl)ethyl]-7-oxo-1-azabicyclo [3.2.0.] hept-2-ene-2-carboxylate] | 25 | 25 | 3.1 | 1.6 | 1.6 | 12.5 | 12.5 | 3.1 | 12.5 | 50 | 1.6 | 6.2 | 3.1 | 6.2 | 6.2 | 6.2 | 25 | 100 |  | 12.5 |  |
| CC(=O)N/C=C/SC1=C(C(=O)O)N2C(=O)[C@H]([C@@H](C)n3cc(C(=O)OCCN)nn3)[C@H]2C1 [Example 7, (5R,6S)-3-[(E)-2-acetamidoethenylthio]-6-[(R)-1-(4-(2-aminoethyloxycarbonyl)triazol-1-yl]ethyl]-7-oxo-1-azabicyclo[3.2.0.]hept-2-ene-2-carboxylic acid] | 0.8 (≈ 1.78 µM) | 1.6 (≈ 3.55 µM) | 0.8 (≈ 1.78 µM) |  | 3.1 (≈ 6.88 µM) | 25 (≈ 55.5 µM) |  | 6.2 (≈ 13.8 µM) | 25 (≈ 55.5 µM) | 100 (≈ 222 µM) | 1.6 (≈ 3.55 µM) | 3.1 (≈ 6.88 µM) | 1.6 (≈ 3.55 µM) | 0.8 (≈ 1.78 µM) | 0.4 (≈ 0.888 µM) | 0.4 (≈ 0.888 µM) | 12.5 (≈ 27.7 µM) | 50 (≈ 111 µM) | 0.4 (≈ 0.888 µM) | 1.6 (≈ 3.55 µM) |  |
